Consider 5 compounds from patent publication US7563805B2, “Tri-, tetra-substituted-3-aminopyrrolidine derivative” (Daiichi Pharmaceutical Co., Ltd., priority 2005, dated 2009).

Values after ≈ are worked out from the molar mass of the structure shown.

The test system of one data set is S. aureus, 209P. Kind of data set: antibacterial activity (MIC), standard method of Japanese Society of Chemotherapy. Particulars: Staphylococcus aureus.
The next data set deals with P. vulgaris, 08601. Described as above. The conditions noted are these: Proteus vulgaris, 08601, P. vulgaris.
For the next data set, the system named is P. aeruginosa, 32104. The data set is described as above. Particulars: Pseudomonas aeruginosa.
A further data set concerns P. aeruginosa, 32121. The description is as above. The conditions noted are these: Pseudomonas aeruginosa.
The test system of data set [1] is S. aureus, 87037 (LVFX-resistant MRSA). The data set is described as above. The conditions noted are these: Staphylococcus aureus, MRSA, S. aureus, 87037 (LVFX-resistant MRSA).
The next data set concerns S. epidermidis, 56500. The description is as above. Particulars: Staphylococcus epidermidis, 56500, S. epidermidis.
The next data set deals with E. faecalis, ATCC 19433. The description is as above. Particulars: Enterococcus faecalis, ATCC19433, E. faecalis.
A further data set relates to E. coli NIHJ. The data set is described as above. Particulars: Escherichia coli.
The test system of data set [2] is S. pneumoniae, J24 (penicillin-intermediate resistant bacteria). Described as above. Particulars: Streptococcus pneumoniae.
A further data set deals with S. marscecens, 10100. In words: antibacterial activity (MIC), standard method of Japanese Society of Chemotherapy.
A further data set addresses hERG K+ channel (Homo sapiens, UniProt Q12809). In words: hERG-K^+ channel blocking effect.

Sequence of hERG K+ channel (Q12809 whole entry): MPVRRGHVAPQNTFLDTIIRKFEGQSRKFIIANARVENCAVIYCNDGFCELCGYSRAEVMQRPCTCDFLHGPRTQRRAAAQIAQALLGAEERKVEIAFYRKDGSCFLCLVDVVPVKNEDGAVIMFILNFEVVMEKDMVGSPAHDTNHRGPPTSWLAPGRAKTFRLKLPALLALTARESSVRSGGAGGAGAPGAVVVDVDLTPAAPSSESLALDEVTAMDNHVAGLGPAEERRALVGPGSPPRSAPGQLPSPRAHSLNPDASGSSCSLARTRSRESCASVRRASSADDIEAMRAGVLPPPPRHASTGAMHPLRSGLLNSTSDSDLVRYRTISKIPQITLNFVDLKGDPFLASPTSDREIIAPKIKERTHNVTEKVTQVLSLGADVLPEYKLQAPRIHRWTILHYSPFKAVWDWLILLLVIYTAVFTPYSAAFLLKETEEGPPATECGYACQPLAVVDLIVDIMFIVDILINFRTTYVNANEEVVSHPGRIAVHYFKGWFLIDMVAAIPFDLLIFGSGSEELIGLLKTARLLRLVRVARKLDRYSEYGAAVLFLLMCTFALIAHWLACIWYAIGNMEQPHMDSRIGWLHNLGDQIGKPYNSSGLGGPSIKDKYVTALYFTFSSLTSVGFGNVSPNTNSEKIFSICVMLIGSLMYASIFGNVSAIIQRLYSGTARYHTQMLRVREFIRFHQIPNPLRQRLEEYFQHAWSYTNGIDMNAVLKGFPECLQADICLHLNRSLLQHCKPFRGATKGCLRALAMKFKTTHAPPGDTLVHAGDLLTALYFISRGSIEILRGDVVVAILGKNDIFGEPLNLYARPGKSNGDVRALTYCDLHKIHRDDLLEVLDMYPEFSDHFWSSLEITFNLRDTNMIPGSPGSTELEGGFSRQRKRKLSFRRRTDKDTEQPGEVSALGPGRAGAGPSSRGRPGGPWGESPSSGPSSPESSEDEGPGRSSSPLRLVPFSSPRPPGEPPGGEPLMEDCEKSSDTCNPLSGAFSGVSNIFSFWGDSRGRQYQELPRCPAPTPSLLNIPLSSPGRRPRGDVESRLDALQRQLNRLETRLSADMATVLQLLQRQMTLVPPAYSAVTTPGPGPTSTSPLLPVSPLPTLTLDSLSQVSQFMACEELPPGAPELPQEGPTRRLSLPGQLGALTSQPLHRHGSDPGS

`C=C1CN(c2c(F)cc3c(=O)c(C(=O)O)cn([C@@H]4C[C@@H]4F)c3c2OC)C[C@@]1(C)N` [Example 15, 7-[(3S)-3-Amino-3-methyl-4-methylenepyrrolidine-1-yl]-6-fluoro-1-[(1R,2S)-2-fluorocyclopropyl]-8-methoxy-1,4-dihydro-4-oxoquinoline-3-carboxylic acid] displayed a melting point of 100 to 102 °C. Moreover, inhibition of growth in the data set on S. aureus, 209P (MIC) required 0.05 µg/mL (≈ 0.123 µM). This compound displayed an MIC in the data set with P. vulgaris, 08601 of 0.025 µg/mL (≈ 0.0617 µM). Moreover, in the data set on P. aeruginosa, 32104, the lowest concentration to inhibit growth (MIC) was 0.39 µg/mL (≈ 0.962 µM). Besides, the MIC against P. aeruginosa, 32121 turned out to be 0.2 µg/mL (≈ 0.493 µM). In data set [1], this compound yielded an MIC of 0.78 µg/mL (≈ 1.92 µM). Besides, the MIC against S. epidermidis, 56500 came out at 0.1 µg/mL (≈ 0.247 µM). For the same compound, the MIC in the data set on E. faecalis, ATCC 19433 worked out at 0.2 µg/mL (≈ 0.493 µM). Besides, 0.012 µg/mL (≈ 0.0296 µM) was the least that counted as inhibitory against E. coli NIHJ (MIC). Also, it took 0.1 µg/mL (≈ 0.247 µM) to inhibit growth in data set [2] (MIC). In the data set with S. marscecens, 10100, this compound gave an MIC of 0.2 µg/mL (≈ 0.493 µM).
Take `Cc1c(N2C[C@H](CF)[C@](C)(N)C2)c(F)cc2c(=O)c(C(=O)O)cn([C@@H]3C[C@@H]3F)c12` [Example 22, 7-[(3S,4S)-3-Amino-4-fluoromethyl-3-methylpyrrolidin-1-yl]-6-fluoro-1-[(1R,2S)-2-fluoro-1-cyclopropyl]-8-methyl-1,4-dihydro-4-oxoquinoline-3-carboxylic acid]: the melting point was 135 to 137 °C. In the data set with S. aureus, 209P, the MIC was 0.025 µg/mL (≈ 0.0611 µM). In the data set with P. vulgaris, 08601, this compound returned an MIC of 0.012 µg/mL (≈ 0.0293 µM). Further, it took 0.39 µg/mL (≈ 0.953 µM) to inhibit growth with P. aeruginosa, 32104 (MIC). In the data set on P. aeruginosa, 32121, the lowest concentration to inhibit growth (MIC) was 0.1 µg/mL (≈ 0.244 µM). In addition, inhibition of growth in data set [1] (MIC) required 0.78 µg/mL (≈ 1.91 µM). In the data set with S. epidermidis, 56500, this compound gave an MIC of 0.05 µg/mL (≈ 0.122 µM). This compound also registered a minimal inhibitory concentration (MIC) against E. faecalis, ATCC 19433 of 0.2 µg/mL (≈ 0.489 µM). For the same compound, in the data set on E. coli NIHJ, the MIC turned out to be 0.012 µg/mL (≈ 0.0293 µM). Inhibition of growth in data set [2] (MIC) required 0.1 µg/mL (≈ 0.244 µM). At hERG K+ channel, the inhibition at 30 µM was -1.3 ± 10.1%, the inhibition at 100 µM was -0.6 ± 7.9% and the inhibition at 300 µM is 21.5 ± 6.9%. For the same compound, in the data set with S. marscecens, 10100, inhibition of growth (MIC) required 0.1 µg/mL (≈ 0.244 µM).
For the compound `Cc1c(N2CC(F)[C@](C)(N)C2)c(F)cc2c(=O)c(C(=O)O)cn([C@@H]3C[C@@H]3F)c12` (single isomer, unassigned) [Example 27], the melting point lay in the range of 215 to 217 °C. In addition, the MIC against S. aureus, 209P was determined as 0.012 µg/mL (≈ 0.0304 µM). In the data set on P. vulgaris, 08601, this compound returned an MIC of 0.006 µg/mL (≈ 0.0152 µM). The same compound came in with an MIC in the data set with P. aeruginosa, 32104 of 0.39 µg/mL (≈ 0.986 µM). For the same compound, in the data set on P. aeruginosa, 32121, inhibition of growth (MIC) required 0.1 µg/mL (≈ 0.253 µM). The compound also registered an MIC in data set [1] of 0.39 µg/mL (≈ 0.986 µM). For the same compound, 0.05 µg/mL (≈ 0.126 µM) was the least that counted as inhibitory in the data set on S. epidermidis, 56500 (MIC). Further, the lowest concentration to inhibit growth with E. faecalis, ATCC 19433 (MIC) was 0.2 µg/mL (≈ 0.506 µM). In the data set with E. coli NIHJ, this compound gave an MIC of 0.006 µg/mL (≈ 0.0152 µM). In data set [2], this compound yielded an MIC of 0.1 µg/mL (≈ 0.253 µM). In addition, on hERG K+ channel, the inhibition at 30 µM is -1.8 ± 6.8%, the inhibition at 100 µM came out at 0.6 ± 8% and the inhibition at 300 µM is 8.9 ± 11%. The same compound returned an MIC against S. marscecens, 10100 of 0.1 µg/mL (≈ 0.253 µM).
Turning to `Cc1c(N2CC3(CC3)[C@](C)(N)C2)ccc2c(=O)c(C(=O)O)cn([C@@H]3C[C@@H]3F)c12` [Example 29, 7-[(7S)-7-Amino-7-methyl-5-azaspiro[2.4]heptan-5-yl]-1-[(1R,2S)-2-fluorocyclopropyl]-8-methyl-1,4-dihydro-4-oxoquinoline-3-carboxylic acid], the melting point fell in the range of 157 to 159 °C. For the same compound, the MIC against S. aureus, 209P stood at 0.05 µg/mL (≈ 0.13 µM). In the data set with P. vulgaris, 08601, this compound registered an MIC of 0.025 µg/mL (≈ 0.0649 µM). The MIC against P. aeruginosa, 32104 was determined as 0.2 µg/mL (≈ 0.519 µM). This compound also registered an MIC with P. aeruginosa, 32121 of 0.1 µg/mL (≈ 0.259 µM). In data set [1], this compound yielded an MIC of 3.13 µg/mL (≈ 8.12 µM). This compound returned an MIC against S. epidermidis, 56500 of 0.2 µg/mL (≈ 0.519 µM). This compound also came in with an MIC against E. faecalis, ATCC 19433 of 0.78 µg/mL (≈ 2.02 µM). Inhibition of growth against E. coli NIHJ (MIC) required 0.05 µg/mL (≈ 0.13 µM). In addition, in [2], the MIC came to 0.39 µg/mL (≈ 1.01 µM). The compound further came in with an MIC against S. marscecens, 10100 of 0.2 µg/mL (≈ 0.519 µM).
`COc1c(N2C[C@H](CF)[C@](C)(N)C2)c(F)cc2c(=O)c(C(=O)O)cn(C3CC3)c12` [Example 21, 7-[(3S,4S)-3-Amino-4-fluoromethyl-3-methylpyrrolidin-1-yl]-1-cyclopropyl-6-fluoro-8-methoxy-1,4-dihydro-4-oxoquinoline-3-carboxylic acid] came in with a melting point of 226 to 229 °C. The MIC in the data set with S. aureus, 209P was 0.025 µg/mL (≈ 0.0614 µM). This compound also displayed an MIC against P. vulgaris, 08601 of 0.05 µg/mL (≈ 0.123 µM). In the data set with P. aeruginosa, 32104, this compound returned an MIC of 0.78 µg/mL (≈ 1.91 µM). For the same compound, in the data set with P. aeruginosa, 32121, it took 0.2 µg/mL (≈ 0.491 µM) to inhibit growth (MIC). Also, the MIC in data set [1] turned out to be 0.78 µg/mL (≈ 1.91 µM). In the data set on S. epidermidis, 56500, this compound showed an MIC of 0.1 µg/mL (≈ 0.245 µM). This compound also displayed an MIC in the data set on E. faecalis, ATCC 19433 of 0.2 µg/mL (≈ 0.491 µM). This compound also registered an MIC against E. coli NIHJ of 0.012 µg/mL (≈ 0.0295 µM). In data set [2], this compound showed an MIC of 0.1 µg/mL (≈ 0.245 µM). The same compound yielded an MIC in the data set with S. marscecens, 10100 of 0.2 µg/mL (≈ 0.491 µM).

By MIC is commonly meant the lowest concentration found to suppress growth. Read a high MIC as a need for much substance. For orientation: melting point means the temperature of the solid-liquid transition. The inhibition is the change of the read-out against control, counted positive when it falls.
